“And” between values parts separate entries of the source, which are not always exact repeats. Identical values can stand only once.
Assays:
[1] = molecular target: T1, MAO-A (Homo sapiens, UniProt P21397); details: cited from earlier work
T1 sequence (P21397 1-527): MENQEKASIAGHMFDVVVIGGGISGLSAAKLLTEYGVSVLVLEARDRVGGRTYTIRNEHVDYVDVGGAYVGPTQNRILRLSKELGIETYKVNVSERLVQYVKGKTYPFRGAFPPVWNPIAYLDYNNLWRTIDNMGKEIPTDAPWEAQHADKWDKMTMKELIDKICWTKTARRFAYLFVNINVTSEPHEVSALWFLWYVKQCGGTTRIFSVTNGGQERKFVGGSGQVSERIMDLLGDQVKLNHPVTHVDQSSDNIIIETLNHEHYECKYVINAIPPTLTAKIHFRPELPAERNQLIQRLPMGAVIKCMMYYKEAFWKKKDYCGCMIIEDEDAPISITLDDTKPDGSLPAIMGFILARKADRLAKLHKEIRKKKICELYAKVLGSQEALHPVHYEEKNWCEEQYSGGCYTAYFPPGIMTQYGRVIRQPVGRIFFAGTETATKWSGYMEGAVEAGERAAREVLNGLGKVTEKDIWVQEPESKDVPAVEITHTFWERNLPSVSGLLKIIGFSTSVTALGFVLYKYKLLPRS

[2] = test system: plasma norepinephrine; test: Plasma norepinephrine concentration after dosing droxidopa combinations; assay type: in vivo, rat; details: 2 hours post-dosing, rats
Procedure: The pharmacokinetic properties of droxidopa combinations useful in the methods of the invention were evaluated in male Sprague Dawley rats.
Administration of droxidopa combinations was seen to affect plasma norepinephrine concentration in comparison to administration of droxidopa alone. Formulation 0 indicates administration of the vehicle alone without droxidopa or a droxidopa combination of the invention and provides a baseline comparative of plasma norepinephrine levels in an untreated subject.

[3] = test system: Chronic Constriction Injury (CCI) model; test: Chronic Constriction Injury (CCI) model, mechanical allodynia (electronic Von Frey); assay type: in vivo, rat; details: 60 minutes post dosing; for levels of allodynia compared with vehicle treated animals: ANOVA followed by t-test, significant at P<0.05; for levels of allodynia compared with vehicle treated animals / (3) Post-Treatment (tactile pressure threshold), Ave. / (3) − (2), Ave. / Inhibition (%) of allodynia, Ave. / (3) Post-Treatment (tactile pressure threshold) / (3) − (2) (Post-Treatment minus Pre-Treatment) / Inhibition (%) of allodynia: IP; for (3) Post-Treatment (tactile pressure threshold), Ave. / (3) − (2), Ave. / Inhibition (%) of allodynia, Ave.: group average of 10 animals; for (3) Post-Treatment (tactile pressure threshold), Ave. / (3) − (2), Ave. / Inhibition (%) of allodynia, Ave. / (3) Post-Treatment (tactile pressure threshold) / (3) − (2) (Post-Treatment minus Pre-Treatment) / Inhibition (%) of allodynia: 400 mg/kg droxidopa and 20 mg/kg carbidopa, or 18 mg/kg fluoxetine; for (3) Post-Treatment (tactile pressure threshold) / (3) − (2) (Post-Treatment minus Pre-Treatment) / Inhibition (%) of allodynia: individual animals, male Wistar rats
Procedure: Treatment of fibromyalgia through reducing sensitivity to chronic pain using droxidopa in combination with carbidopa was investigated using the Chronic Constriction Injury (CCI) model. […] Specifically, after anesthetization using pentobarbital (50 mg/kg, 5 ml/kg, i.p.), the sciatic nerve was exposed at mid-thigh level, and three ligatures (4-0 silk suture), about 1 mm apart, were loosely tied around the nerve. The animals were then housed individually in cages with soft bedding for seven days before testing for mechanical allodynia. […] The tip was gradually applied with sufficient force to cause slight buckling of the filament against the paw. […] Allodynia was calculated according to the following formula: % Inhibition=ΔTreatment/ΔBlank×100%. where Δ Treatment is the change in tactile pressure threshold over pre-treatment after ligation [(Post-Treatment)-(Pre-Treatment)], and Δ Blank is change in tactile pressure threshold over pre-ligation but before treatment [(Pre-Ligation)-(Pre-Treatment)]. A one-way ANOVA followed by t-test was applied for comparison between test substance treated groups and the vehicle control group. Activity was considered significant at P<0.05.

With O=C(NCCN1CCOCC1)c1ccc(Cl)cc1 [moclobemide] as the compound, how does the “selectivity for MAO-A than MAO-B” value [1] read?
Its value is “approximately three”.

What does the source list for NC(C(=O)O)C(O)c1ccc(O)c(O)c1 (stereo not drawn) [Droxidopa, threo-3-(3,4-dihydroxyphenyl)serine]?
increase in plasma norepinephrine concentration (fold over vehicle alone) [2]: ~5 fold; levels of allodynia compared with vehicle treated animals [3]: significantly decreased levels of allodynia; (3) Post-Treatment (tactile pressure threshold), Ave. [3]: 21.7; (3) − (2), Ave. [3]: 13.2; Inhibition (%) of allodynia, Ave. [3]: 65.7%; (3) Post-Treatment (tactile pressure threshold) [3]: 26.3 and 32.1 and 23.4 and 26.2 and 22.9 and 11.4 and 20.1 and 12.6 and 22.3 and 19.7; (3) − (2) (Post-Treatment minus Pre-Treatment) [3]: 16.2 and 24.4 and 16.7 and 14.4 and 16.3 and 2.8 and 13.8 and 6 and 10.9 (2×); Inhibition (%) of allodynia [3]: total allodynia inhibition in several test subjects and 104.5% and 115.6% and 66.3% and 75.8% and 74.4% and 11.5% and 72.6% and 26.1% and 62.3% and 48.0%

For CNCCC(Oc1ccc(C(F)(F)F)cc1)c1ccccc1 (stereo not shown) [Fluoxetine, fluoxetine], which “levels of allodynia compared with vehicle treated animals” value [3] is on record?
Its value is “not significantly different from vehicle-treated rats”.

What about the “(3) Post-Treatment (tactile pressure threshold), Ave.” value [3] of the same compound?
The value was 9.2.

And the “(3) − (2), Ave.” value [3]?
Its value is 0.4.

And the “Inhibition (%) of allodynia, Ave.” value [3]?
Its value is 0.7%.

And the “Inhibition (%) of allodynia, Ave.” value ([3]; listed as fluoxetine)?
The value was “less than 1%”.

What about the “(3) Post-Treatment (tactile pressure threshold)” value [3] of the same compound?
Its value is 14.4 and 12.4 and 11.2 and 9.7 and 7 and 10.4 and 6.5 and 8.8 and 6 and 5.9.

And the “(3) − (2) (Post-Treatment minus Pre-Treatment)” value [3]?
The value was 5.3 and 1.2 and 3 (2×) and 0.6 (2×) and 1.6 and −5.5 and −2.7 and −3.6.

What about the “Inhibition (%) of allodynia” value [3] of the same compound?
The value was 25.0% and 5.9% and 17.3% and 3.8% (2×) and 6.1% and 12.2% and −40.1% and −12.1% and −14.6%.

What about the “Inhibition (%) of allodynia” value ([3]; listed as fluoxetine) of the same compound?
Its value is 25%.

What about the increases in allodynia ([3]; individual fluoxetine-treated subjects, 18 mg/kg IP) of the same compound?
Its increases in allodynia is ≤ 40.1%.
